Laboratory results reported in paper PMC3989207, “Subchronic Toxicological Study of Two Artemisinin Derivatives in Dogs” (PLoS ONE, 2014).
Like-named read-outs stand apart in the source and are kept apart here.

What was measured:
beagle dogs [1] = test: Clinical chemistry in the 13-week repeated-dose dog study; type: in vivo
Description: (§1) The first day of treatment was regarded as day one in the study. […] Oral administration was performed about 2 h after feeding. ARM was administered by a bolus intramuscular infusion through a 25-gauge needle at a constant volume of 2 ml kg^−1 once a day into the gluteal and infraspinous muscles. Two dogs of each sex from each group were allowed to recover without further treatment for an additional 4 weeks.
Blood samples were collected from the femoral vein of each dog prior to treatment and every 2 weeks after the first day of treatment. Hematology parameters were measured using an automated hematology analyzer (Sysmex, XT-2000iv, Toa Medical Electronics Co. Ltd., Kobe, Japan) using standard methods. Test parameters included hemoglobin (Hb) levels, the hematocrit (Hct) fraction, erythrocyte (RBC) count, leukocyte (WBC) count, neutrophilic granulocyte fraction (NE%), monocyte fraction (MO%), lymphocyte levels (LY%), platelet count (PLT), reticulocyte count (RET%) and RBC morphology. The following clinical chemistry parameters were measured using a Hitachi-7180 Chemistry Analyzer (High-Technologies Corporation, Tokyo, Japan) and standard methods: glucose, blood urea nitrogen, inorganic phosphorus, creatinine, total protein, albumin, calcium, aspartate aminotransferase (AST), alanine aminotransferase, alkaline phosphatase, total bilirubin, creatine kinase (CK), sodium, potassium and chloride.

beagle dogs [2] = test: Organ weights at necropsy; type: in vivo, dog
Description: as §1
Termination of treatment was scheduled to occur on weeks 4, 8 (two interim necropsies) and 13, followed by a 4-week recovery period. For pathological examinations, the animals were euthanized within 24 h of the final drug administration with sodium pentobarbital, followed by exsanguination via the femoral artery. A gross necropsy was performed, including a thorough visual examination of all the internal organs. Weights were obtained for the brain, heart, liver, spleen, lung, kidneys, adrenals, thyroid/parathyroids, thymus, pancreas and ovaries/testes/prostate, and organ-to-body weight ratios were calculated. For each animal, representative samples from approximately 48 organs and tissues were taken and fixed in neutral buffered 10% formalin, except for the sternum, which was retained in Helly’s fixative (1000 ml distilled water, 25 g potassium dichromate, 10 g sodium sulfate, 50 g mercuric chloride, 50 ml 40% formaldehyde). […]

beagle dogs [3] = test: Severity grading of muscle tissue injury at the intramuscular injection site; type: in vivo, dog; settings: for Severity of muscle tissue injury at the injection site: n=4
Description: as §1
(§2) Termination of treatment was scheduled to occur on weeks 4, 8 (two interim necropsies) and 13, followed by a 4-week recovery period. For pathological examinations, the animals were euthanized within 24 h of the final drug administration with sodium pentobarbital, followed by exsanguination via the femoral artery. A gross necropsy was performed, including a thorough visual examination of all the internal organs. Weights were obtained for the brain, heart, liver, spleen, lung, kidneys, adrenals, thyroid/parathyroids, thymus, pancreas and ovaries/testes/prostate, and organ-to-body weight ratios were calculated. For each animal, representative samples from approximately 48 organs and tissues were taken and fixed in neutral buffered 10% formalin, except for the sternum, which was retained in Helly’s fixative (1000 ml distilled water, 25 g potassium dichromate, 10 g sodium sulfate, 50 g mercuric chloride, 50 ml 40% formaldehyde). Histopathological sections of all samples were prepared by embedding in paraffin wax, multiple-sectioning and staining with hematoxylin and eosin (HE). Samples of the left ventricular myocardium, right lateral hepatic lobe and right kidney from two animals of each sex from each group were fixed immediately after exsanguination in 2.5% glutaraldehyde, post-fixed in 1.0% osmium tetroxide, and embedded in plastic. Ultrathin liver, kidney and heart sections were examined with a Hitachi H-600 transmission electron microscope (TEM). All other tissues were examined by light microscopy.
Gross findings in the ART and ARM treatment groups were limited to the injection sites.

beagle dogs [4] = test: Pathologic (histopathological) examination of organs, brain and cardiac conduction system; type: in vivo, dog
Description: as §1, §2
After removal, the cardiac conduction system, including the sinoatrial node (SAN) and atrioventricular node (AVN), were selected by the Palate method. The brain was sectioned at multiple transverse levels to obtain susceptible brain regions. To improve the definition of the brain lesions, toluidine stains were applied on selected duplicate sections, and all preparations were examined under a light microscope. For pathologic examinations, degenerative neurons were evaluated on three randomly selected brain sections. The adjacent fields of neurons in each selected section were counted using a microscope at a magnification of 200×. […] The severity of the neuropathological lesions was defined as follows: the total number of neuropathological lesions per section area yielded a severity score from 0 to 4, where 0 = unaffected, 1 = minimally affected neurons with one degenerative cell per section, 2 = two degenerative cells per section, 3 = three degenerative cells per section and 4 = multiple degenerative areas per section.

[5] = design: method as in PMID 11060779; settings: cited from earlier work
Dogs = test system: Dogs; design: method as in Classen et al., 1999 [30]; settings: 20 mg kg^−1 per day, i.m. for 30 days, ref Classen et al., 1999 [30]; cited from earlier work
[6] = Toxicokinetic analysis of plasma drug levels (HPLC); type: in vivo, dog; settings: for AUC: 6 mg kg^−1 daily, ART p.o.; for maximum plasma concentration after dosing: daily i.m. 6 mg kg^−1
Description: as §1
For toxicokinetic analysis, blood samples were collected on weeks 1, 2, 4, 8 and 13 at 0 (before dosing), 0.5, 1, 2, 4, 8, 12 and 24 h after dosing. Approximately 1 ml blood was drawn from the antebrachial, cephalic or jugular vein of three animals of each sex per time point and deposited into heparinized tubes for immediate centrifugation at 3000 rpm at 4°C for 10 min. The plasma was then immediately transferred to 2 ml polypropylene tubes and stored on dry ice. Samples were stored at −80°C until HPLC analysis.

[7] = weeks 4 and 6 post-treatment, vs control group (p<0.01)
[8] = Week 4, 6 mg kg^-1 per day (ART p.o., ARM i.m.)
[9] = Week 8, 6 mg kg^-1 per day (ART p.o., ARM i.m.)
[10] = Week 13, 6 mg kg^-1 per day (ART p.o., ARM i.m.)
[11] = Week 17 (after 4-week recovery)
[12] = both treated groups, no significant differences

SMILES: CO[C@H]1O[C@@H]2O[C@@]3(C)CC[C@H]4[C@H](C)CC[C@@H]([C@H]1C)[C@@]24OO3 [ARM, artemether]
- Clinical chemistry: AST(M) (beagle dogs [1]; Week 13, males, 6 mg kg^-1 per day): ↑↑AST(M)
- serum AST (beagle dogs [1]; [7]): significant increases
- serum CK (beagle dogs [1]; [7]): significant increases
- serum albumin levels (beagle dogs [1]; weeks 4 and 10, same changes also in peanut oil only group): significant decrease
- absolute or relative weights of brain, heart, liver, spleen, lungs, kidneys, adrenals, thyroid/parathyroids, pancreas, ovaries, testes or prostate (beagle dogs [2]; 6 mg kg^-1 per day, vs relative controls): no statistically significant effects
- thymus weight (beagle dogs [2]; weeks 4 and 8, one of the two male dogs, i.m.): mild decrease
- Severity of muscle tissue injury at the injection site (beagle dogs [3]; W4, 6 mg kg^−1 i.m., grades 0 (no significant lesions) to 5 (severe)): 2.25±0.87
- Severity of muscle tissue injury at the injection site (beagle dogs [3]; W8, 6 mg kg^−1 i.m., grades 0 to 5): 2.67±0.78
- Severity of muscle tissue injury at the injection site (beagle dogs [3]; W13, 6 mg kg^−1 i.m., grades 0 to 5): 3.92±1.08
- Severity of muscle tissue injury at the injection site (beagle dogs [3]; W17 (after 4-week recovery), grades 0 to 5): 3.84±0.72
- inflammation of muscle tissue at the injection site (beagle dogs [3]; i.m. injection, vs vehicle control group): more severely inflamed than that in the vehicle control group
- Cardiac conduction system foci (dogs affected/examined) (beagle dogs [4]; [8]): 0
- Extramedullary hematopoiesis (dogs affected/examined) (beagle dogs [4]; [8]): 2/4
- Hepatocyte necrosis (dogs affected/examined) (beagle dogs [4]; [8]): 3/4
- Inhibition of erythropoiesis (dogs affected/examined) (beagle dogs [4]; [8]): 4/4
- Neuronal necrosis (dogs affected/examined) (beagle dogs [4]; [8]): 0
- Tubular cell degeneration (dogs affected/examined) (beagle dogs [4]; [8]): 4/4
- Cardiac conduction system foci (dogs affected/examined) (beagle dogs [4]; [9]): 0
- Extramedullary hematopoiesis (dogs affected/examined) (beagle dogs [4]; [9]): 3/4
- Hepatocyte necrosis (dogs affected/examined) (beagle dogs [4]; [9]): 2/4
- Inhibition of erythropoiesis (dogs affected/examined) (beagle dogs [4]; [9]): 2/4
- Neuronal necrosis (dogs affected/examined) (beagle dogs [4]; [9]): 2/4
- Tubular cell degeneration (dogs affected/examined) (beagle dogs [4]; [9]): 3/4
- Cardiac conduction system foci (dogs affected/examined) (beagle dogs [4]; [10]): 0
- Extramedullary hematopoiesis (dogs affected/examined) (beagle dogs [4]; [10]): 1/4
- Hepatocyte necrosis (dogs affected/examined) (beagle dogs [4]; [10]): 0
- Inhibition of erythropoiesis (dogs affected/examined) (beagle dogs [4]; [10]): 2/4
- Neuronal necrosis (dogs affected/examined) (beagle dogs [4]; [10]): 4/4
- Tubular cell degeneration (dogs affected/examined) (beagle dogs [4]; [10]): 2/4
- Cardiac conduction system foci (dogs affected/examined) (beagle dogs [4]; [11]): 0
- Extramedullary hematopoiesis (dogs affected/examined) (beagle dogs [4]; [11]): 0
- Hepatocyte necrosis (dogs affected/examined) (beagle dogs [4]; [11]): 0
- Inhibition of erythropoiesis (dogs affected/examined) (beagle dogs [4]; [11]): 0
- Neuronal necrosis (dogs affected/examined) (beagle dogs [4]; [11]): 1/4
- Tubular cell degeneration (dogs affected/examined) (beagle dogs [4]; [11]): 1/4
- dogs with neuropathological abnormalities (beagle dogs [4]; after the 4-week recovery period, mild damage): one of the four dogs
- histological examination of sternal bone marrow (beagle dogs [4]; [12]): mild inhibition of erythropoiesis and a decreased count of mature erythrocytes
- spleen histology (beagle dogs [4]; [12]): extramedullary hematopoiesis was observed in the spleen
- mean severity score of the lesions in the brain (beagle dogs [4]; score 0 (unaffected) to 4 (multiple degenerative areas per section)): 2.14
- light microscopy of liver sections (beagle dogs [4]; some dogs, characterized as very mild): degenerative hepatocellular changes
- histopathological changes in the kidneys (beagle dogs [4]; vs control groups): tubular epithelium vacuolation and necrosis
- dogs with neuropathological abnormalities (beagle dogs [4]; week 8, two of the four dogs examined): 50%
- dogs with neuropathological abnormalities (beagle dogs [4]; week 13, four of the four dogs examined): 100%
- solubility character [5]: fat soluble
- Effect (toxicology) (Dogs): Axonal damage in the cerebellar roof, pontine and vestibular nuclei, and in the raphe/ paralemniscal region; hypochromic, microcytic anemia
- AUC ([6]; both sexes, beagle, dog, plasma, other: ART p.o., ARM i.m., 6 mg/kg, week 8, ARM i.m., dog plasma, read-out: AUC8w): 10.9 ± 11.6 ng·h/mL
- AUC ([6]; both sexes, beagle, dog, plasma, other: ART p.o., ARM i.m., 6 mg/kg, week four, ARM i.m., dog plasma, read-out: AUC4w): 739 ± 209 ng·h/mL
- AUC(0-t) ([6]; both sexes, beagle, dog, plasma, other: ART p.o., ARM i.m., 6 mg/kg, read-out: AUC93D): 71.3 ± 56.6 ng·h/mL
- Cmax ([6]; both sexes, beagle, im, week four, 6 mg kg^−1 daily i.m., dog plasma, read-out: C max, w4): 219 ± 41.3 ng/mL
- half-life ([6]; both sexes, beagle, im, week four, 6 mg kg^−1 daily i.m., dog plasma, read-out: T 1/2, w4 (biological half-life) (converted)): 3 ± 1.16 h
- Tmax ([6]; both sexes, beagle, im, week four, 6 mg kg^−1 daily i.m., dog plasma, read-out: T max, w4): 0.5 ± 0.03 h
- maximum plasma concentration after dosing ([6]; day 1): 90.63 ± 24.99 µg/L
- maximum plasma concentration after dosing ([6]; week 4): 219.10 ± 41.30 µg/L
- maximum plasma concentration after dosing ([6]; week 8): 46.20 ± 13.15 µg/L
- maximum plasma concentration after dosing ([6]; week 13): 43.85 ± 10.79 µg/L
